Measurements taken from US20130040331A1, “LABEL-FREE METHODS RELATED TO hERG POTASSIUM ION [sequence]” (CORNING INCORPORATED, priority 2009, published 2013).

Assays:
[1] = target: T1, hERG channel (Homo sapiens, UniProt Q12809); assay: Automated patch clamp recording of hERG current using IonWorks, CHO-hERG cells; details: for effect on hERG tail current: 50 μM, tail current at return to −35 mV; for effect on hERG current: final compound concentration 50 μM
Protocol: CHO—K1 cells stably expressing hERG channel (CHO-hERG) were cultured in T175 flask till about 70% confluent. Cells were washed twice with PBS, then 2.5 ml 0.25% Trypsin/EDTA was mixed with 2.5 ml PBS and added to the T175 flask. Cells were incubated about 2 minutes with the diluted Trypsin/EDTA solution at 37° C., then were continuously incubated about 3 minutes at room temperature. 20 ml fresh medium were added to suspend the cells and transfer to a 50 ml tube. Cells were centrifuged down at 750 rpm for 5 minutes. The extra medium was removed and cells were resuspended in 6 ml External Buffer (137 mM NaCl, 4 mM KCl, 1.8 mM CaCl2, 1 mM MgCl2, 10 mM HEPES, 10 mM glucose, pH 7.4). Then cells were centrifuged again at 450 rpm for another 5 minutes. Finally cells were resuspended in 4 ml the External Buffer, cell number was counted using a hemacytometer. Cell suspension was diluted to 2.5×10^6 cells/ml with the External Buffer. 4 ml of the resuspended cells were added to the cell reservoir in IonWorks. The Internal solution used contains: 40 mM KCl, 100 mM K-Gluconate, 3.2 mM MgCl2, 2 mM CaCl2, 5 mM HEPES, pH 7.25 (adjusted with KOH). 5 mg Amphotericin B from 200 ul DMSO stock was added to 65 ml the Internal solution and mixed well to achieve electrical access to the interior of cells on the patch plate.
Compounds were prepared from 10 mM DMSO stock and diluted in the External Buffer to make 3× compound solution. […] of the 3× compound solution was transferred to a 384 well plate in Row A, B, C and D. PD11857 (Sigma-Aldrich), a reported hERG channel activator was used as activator positive control (final concentration 30 and 50 μM). hERG blocker dofetilide was used as blocker positive control (final concentration 100 nM). The final DMSO concentration in the IonWorks Quattro PatchPlate PPC plate (Cat#9000-0902, Molecular Devices) was 0.5%. Final compound concentration was 50 μM. Each compound was added to four wells of one PPC plate.
hERG currents were recorded on IonWorks Quattro (Molecular Devices). To record hERG current, the cells were clamped at −80 mV initially, then followed by a 5-s depolarization at +40 mV to activate the channels. Tail currents were measured during an ensuing return to −35 mV. Data analysis were done using IonWorks Quttro® System Software version 2.0.4.4. Data from wells with seal resistance less than 50 MΩ or hERG tail currents less than 0.1 nA were filtered out. […] Inhibitor hits were selected if hERG tail currents ratio (post/pre-compound) is less than mean-2SD of the average DMSO control.
To record hERG current, the cells were clamped at −80 mV initially, then followed by a 5-s depolarization at +40 mV to activate the channels (phase a in FIG. 10A). Tail currents were measured during an ensuing return to −35 mV for 2 seconds (phase b in FIG. 10A). Final holding potential at −70 mV (phase c in FIG. 10B).

[2] = target: T1, hERG channel; details: oocytes, cited from earlier work
[3] = tested on: HEK293 cells; assay: Label-free RWG biosensor (Epic) DMR assay, agonism mode, native HEK293 cells without hERG; type: cell-based, human; details: compound at 16 micromolar
Protocol: Epic® wavelength interrogation system (Corning Inc., Corning, N.Y.) was used for whole cell sensing. This system consists of a temperature-control unit, an optical detection unit, and an on-board liquid handling unit with robotics. The detection unit is centered on integrated fiber optics, and enables kinetic measures of cellular responses with a time interval of ˜15 sec.
Cells were plated in 384-well Epic® cell culture treated plate (Corning Cat#5040) 16-20 hours before assay (15000 cells/well for HEK293 and HEK-hERG cells, 30000 cells/well for HT29 cells). For both HEK-hERG and its parental HEK293 cells, each well was coated with 10 μl 5 μg/ml fibronectin. One hour before assay, cells were washed twice on a BioTek ELx405 Select washer with Hank's Balanced Salt Solution (HBSS) containing 20 mM Hepes. Cells were incubated in 40 μl/well HBSS at 28° C. inside the Epic system for one hour. For each assay, a 2-min baseline was initiated, followed by addition of 10 μl compound solutions (5×) and the cell responses were recorded continuously for one hour.
All studies were carried out at a controlled temperature (28° C.). At least two independent sets of experiments, each with at least three replicates, were performed. […] All dose-dependent responses were analyzed using non-linear regression method with the GraphPad Prism 5. […]

[4] = tested on: HEK-hERG cells; type: cell-based, human; details: microscopic imaging, data not shown
Protocol: To confirm these findings, several follow-up studies were carried out.

[5] = target: T1, hERG channel; details: 10 micromolar; cited from earlier work

T1 sequence (Q12809 whole entry): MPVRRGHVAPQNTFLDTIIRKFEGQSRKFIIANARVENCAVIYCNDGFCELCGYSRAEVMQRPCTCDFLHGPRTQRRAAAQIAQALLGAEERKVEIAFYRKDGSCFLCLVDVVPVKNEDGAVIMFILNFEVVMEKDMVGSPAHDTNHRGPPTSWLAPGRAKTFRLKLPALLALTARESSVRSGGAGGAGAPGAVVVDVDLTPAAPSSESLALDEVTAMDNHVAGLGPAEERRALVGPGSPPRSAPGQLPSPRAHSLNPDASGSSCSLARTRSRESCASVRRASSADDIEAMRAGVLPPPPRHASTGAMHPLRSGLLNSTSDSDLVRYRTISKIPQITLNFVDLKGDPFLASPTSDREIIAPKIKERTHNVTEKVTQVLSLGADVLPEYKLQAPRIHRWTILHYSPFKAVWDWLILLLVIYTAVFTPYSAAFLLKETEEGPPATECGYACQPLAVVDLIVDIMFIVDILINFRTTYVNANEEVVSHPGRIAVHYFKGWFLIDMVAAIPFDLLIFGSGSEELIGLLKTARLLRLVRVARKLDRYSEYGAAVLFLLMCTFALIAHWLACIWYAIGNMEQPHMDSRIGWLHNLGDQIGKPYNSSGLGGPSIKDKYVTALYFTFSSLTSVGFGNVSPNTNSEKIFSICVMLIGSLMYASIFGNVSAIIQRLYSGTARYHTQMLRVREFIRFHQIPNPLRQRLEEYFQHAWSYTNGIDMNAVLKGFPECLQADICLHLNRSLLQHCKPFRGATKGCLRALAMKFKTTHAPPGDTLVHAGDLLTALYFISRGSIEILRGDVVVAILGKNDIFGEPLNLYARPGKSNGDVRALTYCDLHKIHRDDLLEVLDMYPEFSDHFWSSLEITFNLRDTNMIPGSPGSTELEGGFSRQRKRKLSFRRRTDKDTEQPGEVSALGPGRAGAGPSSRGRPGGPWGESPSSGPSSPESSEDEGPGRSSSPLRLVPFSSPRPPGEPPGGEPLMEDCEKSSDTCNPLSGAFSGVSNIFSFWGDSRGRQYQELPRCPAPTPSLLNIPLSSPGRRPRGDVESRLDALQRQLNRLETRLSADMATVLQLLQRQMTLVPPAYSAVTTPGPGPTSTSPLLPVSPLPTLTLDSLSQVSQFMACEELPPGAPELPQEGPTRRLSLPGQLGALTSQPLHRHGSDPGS

Compound | effect on hERG tail current [1] | effect on hERG current [1] | amplitude of outward currents evoked by depolarizing pulses ([2]; 100 to 500 μM) | activation and deactivation rate of hERG channels [2] | DMR signal in HEK293 cells [3] | effect on hERG current ([1]; listed as Mallotoxin) | cell toxicity at high doses [4] | shift of half maximal activation voltage (V1/2) to the hyperpolarizing direction [5]
O=C(O)c1ccccc1Nc1cccc(C(F)(F)F)c1 [flufenamic acid] | significantly increased | weak hERG current activator | enhanced the amplitude of outward currents | accelerated the activation rate of hERG channels and decelerated their deactivation | – | – | – | –
CC(=O)c1c(O)c(C)c(O)c(Cc2c(O)c3c(c(C(=O)/C=C/c4ccccc4)c2O)OC(C)(C)C=C3)c1O [mallotoxin] | significantly increases | significantly increases | – | – | net-zero DMR signal | strong hERG current activator | caused cell apoptosis | more than 25 mV
